Values of other authors, collected in patent US5679660A, “Pharmaceutical composition comprising diclofenac and cyclodextrin” (Farmarc Nederland BV, priority 1993, dated 1997).

Settings: literature, Backensfeld and Mueller 1990

OC[C@H]1O[C@@H]2O[C@H]3[C@H](O)[C@@H](O)[C@@H](O[C@H]4[C@H](O)[C@@H](O)[C@@H](O[C@H]5[C@H](O)[C@@H](O)[C@@H](O[C@H]6[C@H](O)[C@@H](O)[C@@H](O[C@H]7[C@H](O)[C@@H](O)[C@@H](O[C@H]8[C@H](O)[C@@H](O)[C@@H](O[C@H]1[C@H](O)[C@H]2O)O[C@@H]8CO)O[C@@H]7CO)O[C@@H]6CO)O[C@@H]5CO)O[C@@H]4CO)O[C@@H]3CO [Beta-cyclodextrin]
effect on aqueous solubility of diclofenac: increase the aqueous solubility
